The values below come from PubChem BioAssay (NCI).

Holding throughout (assay): NCI-60 cell line screen, 48 h
In assay [1] the test system is HT29 colon.
Assay [2] concerns OVCAR-8 ovarian.
In assay [3] the test system is SF-268 CNS.
In assay [4] the test system is M14 melanoma.
Assay [5] relates to UACC-257 melanoma.
Assay [6] concerns MCF7 breast.
The test system of assay [7] is MDA-MB-231 breast.
Assay [8] deals with MDA-MB-435.
In assay [9] the test system is SK-MEL-2 melanoma.
Assay [10] has as its system HS 578T breast.

Molecules are shown by their SMILES.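 Dose response: 5 concentrations. Exposure: 48 h. Format: 96-well plates. Endpoint: linear interpolation; highest concentration if not reached. GI50 = concentration required for 50% inhibition of growth. TGI marks complete inhibition of growth.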

Take `Cc1nc2ccccc2c(=O)n1/N=C(\N=Nc1cc(Cl)ccc1Cl)c1ccc(N(C)C)cc1`: the TGI in [1], in assay [2] and in assay [3] was > 100 µM throughout.
In the case of `C#Cc1c(C)c(/C=C/C(C)=C\C(=O)OC)n(C)c1C`, the TGI in [1], in assay [4], in assay [2], in assay [3] and in assay [5] was > 100 µM in each case.
As for `O=C(O)CCCCCNCc1cc2cc3c(cc2c2cc(OCc4ccccc4)ccc12)OCO3`, the GI50 in assay [1] was 1.73 µM; in assay [4], 1.9 µM; in assay [6], 1.68 µM; in assay [7] it was 1.88 µM; in assay [8] it was 1.78 µM; in assay [2], 1.61 µM. Also, the figures for the GI50 in assay [9] and in assay [5] were 2.22 µM and 3.38 µM, respectively. Further, the TGI in assay [1] was 3.53 µM; in assay [4] it was 3.51 µM; in assay [6], 3.21 µM; in assay [7], 3.88 µM; in assay [8], 3.3 µM; in assay [2], 3.21 µM. Moreover, the TGI worked out at 4.6 µM in assay [9] and 10.9 µM in [5].
For the molecule `COc1ccc(/C=C\c2cc(OC)c(OC)c(OC)c2)cc1NC(=O)/C=C/c1cc(OC)c(OC)c(OC)c1`, the GI50 in [10] was 5.94 µM; in assay [1], 3.55 µM; in assay [4], 3.15 µM; in assay [6], 2.92 µM; in assay [7], 7.81 µM; in assay [2], 5.14 µM. The values for the GI50 in assay [3] and in assay [5] were > 100 µM and 30.8 µM, respectively. Also, the TGI in assay [10], in assay [1], in [4], in [6], in assay [7] and in [2] was > 100 µM throughout. For the same molecule, the TGI in [3] and in assay [5] was > 100 µM each time.
With `Nc1nc(N)c(CCCCc2ccc([N+](=O)[O-])cc2)c(N)n1`, the TGI in assay [10], in assay [1], in assay [4], in assay [6], in assay [7] and in assay [2] was > 100 µM each time. In addition, the TGI in assay [3], in assay [9] and in assay [5] was > 100 µM in each case.
As for `CC(=O)O[C@H]1CSC[C@@H](OC(C)=O)C1[N+](=O)[O-]` (some centres not stated), the TGI is > 100 µM in assay [1]; 87.7 µM in assay [4]; > 100 µM in assay [2]; > 100 µM in assay [3]; 66.9 µM in assay [9]; 52 µM in [5].
On to `CCN(CC)c1ccc(N=Nc2ccc(-c3nc4cccnc4s3)cc2)cc1`, for which the TGI in assay [1], in assay [4], in assay [2], in [3], in assay [9] and in [5] was > 100 µM in each case.
For the molecule `O=C(CC1(O)C(=O)Nc2ccccc21)c1cccc(O)c1` (configuration not stated), the TGI in assay [1], in assay [4], in [2], in assay [3], in assay [9] and in assay [5] was > 100 µM in each case.
With `CC(C)(c1ccc(C=O)o1)c1ccc(C(C)(C)c2ccc(C=O)o2)o1`, the TGI in assay [1], in assay [2], in [3], in [9] and in [5] was > 100 µM throughout.
For the molecule `NN=C1/C(=C\c2ccccc2)CCC/C1=C/c1ccccc1`, the TGI in [4], in assay [2], in [3], in [9] and in assay [5] was > 100 µM throughout.
Turning to `COc1ccccc1NC(=O)c1sc2ncn(CCOc3ccccc3)c(=O)c2c1C`, the GI50 is 1.37 µM in assay [10]; 3.54 µM in assay [4]; 3.55 µM in [6]; 2.61 µM in [7]; > 50 µM in [2]; 3.2 µM in assay [3]. For the same molecule, the GI50 is 3.37 µM in assay [9] and 1.49 µM in assay [5]. The TGI in [10] is 4.1 µM; in [4], > 50 µM; in [6], > 50 µM; in assay [7] it was > 50 µM; in assay [2] it was > 50 µM; in assay [3], > 50 µM. Also, the TGI in assay [9] and in [5] was > 50 µM each time.
On to `CCOC(=O)C1=C(C)N(NC(=O)Nc2ccccc2)C2(N)N(NC(=O)Nc3ccccc3)C(C)=C(C(=O)OCC)C12C#N` (configuration not stated), for which the TGI in assay [1] came to 38.1 µM; in assay [4], 34.6 µM; in [2] it was 33.4 µM; in assay [3], 42.8 µM; in [9], 30.2 µM; in [5], 38.5 µM.
`CCNC(=O)O/N=C1\CCC2[C@@H]3CC=C4C[C@@H](OC(=O)NCC)CC[C@]4(C)C3CC[C@]12C` (some centres not stated): the TGI in assay [1] came to 13 µM; in [4], 3.23 µM; in assay [2], 18.2 µM; in assay [3] it was 13 µM; in assay [9], 9.87 µM; in [5] it was 3.33 µM.
Regarding `COc1cc(C(=O)/C=C/c2c[nH]c3ccccc23)cc(OC)c1OC`, the GI50 in [10] is 0.0208 µM; in assay [1] it was < 0.0146 µM; in assay [4] it was < 0.0155 µM; in assay [6], 0.0857 µM; in assay [7] it was 0.132 µM; in [2] it was 0.037 µM. The GI50 in assay [3] is 0.0735 µM; in [9] it was 0.0392 µM. The TGI in [10] turned out to be 30.4 µM; in assay [1], 0.343 µM; in [4], 39.4 µM; in assay [6], 15 µM; in assay [7] it was 12.4 µM; in [2], 15.6 µM. The TGI amounted to 26.3 µM in assay [3] and 19.2 µM in assay [9].
As to `CSCSCC(CO)NC(=O)/C=C/c1c(C)[nH]c(=O)[nH]c1=O` (configuration not stated), the TGI in assay [1], in [4], in [2], in assay [3], in assay [9] and in assay [5] was > 100 µM throughout.
Take `N#Cc1c(N)oc2cc3c(C#N)c(N)oc3cc12`: the TGI in [1], in [4], in assay [2], in [3], in assay [9] and in assay [5] was > 100 µM in each case.
For `COc1cc(C2c3cc4c(cc3[C@@H](Nc3ccc(F)cc3)C3COC(=O)[C@H]23)OCO4)cc(OC)c1O` (some centres not stated), the TGI in assay [1] is 18.2 µM; in assay [4] it was 17.4 µM; in assay [6] it was > 65.2 µM; in [7], 17.4 µM; in assay [8], > 100 µM; in assay [2] it was 15.6 µM. In addition, the TGI is 27.7 µM in assay [3], 19.2 µM in assay [9] and 31.3 µM in [5]. Besides, the figures for the GI50 in assay [4] and in assay [2] were 0.795 µM and 0.886 µM, respectively.
Take `N#Cc1sc2nc3c(c(-c4ccccc4)c2c1N)CCCC3`: the TGI in assay [1], in assay [2], in assay [9] and in assay [5] was > 100 µM in each case.
For `CN(C(=O)C12C3C4C1C1C2C3C41C#N)C(C)(C)C` (configuration not stated), the TGI in [1], in assay [4], in assay [2], in assay [3], in assay [9] and in assay [5] was > 100 µM each time.
For `C(=C\c1ccc2ccccc2c1Nc1ccccc1)/c1ccccc1`, the TGI is > 100 µM in assay [1]; 49.6 µM in assay [4]; 81.1 µM in assay [2]; > 100 µM in assay [3]; > 100 µM in assay [9]; > 100 µM in assay [5].
As to `CN(C)NC(=O)NC12CC3CC(CC(C3)C1)C2`, the TGI in [1], in assay [2], in assay [3], in [9] and in [5] was > 100 µM each time.
Turning to `O=C(CC1(O)C(=O)Nc2ccc(Cl)cc21)c1ccc(C(=O)NCC2CCC3(CC2)OOC2(CCCCC2)OO3)cc1` (configuration not stated), the GI50 in assay [10] was 3.44 µM; in [1], 3.19 µM; in assay [4], 4.41 µM; in [6] it was 2.37 µM; in assay [7], 2.68 µM; in assay [2], 2.68 µM. The GI50 in assay [3] is 2.94 µM; in assay [9] it was 2.16 µM; in assay [5], 6.48 µM. The TGI in assay [10] is > 28.2 µM; in assay [1], 11.2 µM; in [4], 24.6 µM; in assay [6], 9.88 µM; in assay [7], 7.72 µM; in assay [2], 11.6 µM. Moreover, the TGI in assay [3] stood at 12.9 µM; in [9], 4.78 µM; in [5], 24.2 µM.
Regarding `Nc1ncc(CN2CCCC2)c(-c2ccccc2O)n1`, the TGI in [1], in assay [4], in assay [2], in assay [3] and in [5] was > 750 µM in each case.
As for `O=C1c2c(c3c4ccccc4n(CC4CO4)c3c3[nH]c4ccccc4c23)C(=O)N1Cc1ccccc1` (configuration not stated), the TGI in assay [1], in [4], in assay [2], in [3], in [9] and in assay [5] was > 100 µM throughout.
As to `O=C1N(c2ccc(Cl)cc2)C(=O)C2(SC=NN2Cc2ccccc2)N1c1ccc(Cl)cc1` (configuration not stated), the TGI in [1], in assay [4], in assay [2], in [3] and in assay [5] was > 100 µM in each case.
As to `COc1cccc(NC(=O)/C(CS(=O)(=O)CCC(C(C)=O)C(C)=O)=N\NC(C)(C)C)c1`, the TGI in assay [1], in assay [4], in assay [2], in [3], in [9] and in assay [5] was > 100 µM throughout.
For `CCn1c(=O)nc2n(-c3ccc(SC)cc3)c3ccccc3nc-2c1=O`, the TGI in [4], in [2], in [3], in [9] and in assay [5] was > 100 µM throughout.
On to `Cc1ccc2nc(CN(CCN(Cc3nc4ccc(C)cc4[nH]3)Cc3nc4ccc(C)cc4[nH]3)Cc3nc4ccc(C)cc4[nH]3)[nH]c2c1`, for which the GI50 was 1.77 µM in [1]; 1.65 µM in assay [4]; 1.88 µM in assay [7]; 1.62 µM in assay [8]; 1.76 µM in assay [2]; 2.16 µM in assay [9]. The GI50 in assay [5] is 1.81 µM. For the same molecule, the TGI in assay [1] was found to be 3.2 µM; in assay [4] it was 3.1 µM; in assay [7], 3.3 µM; in assay [8], 2.98 µM; in assay [2], 3.22 µM; in assay [9] it was 3.85 µM. The molecule further returned a TGI in assay [5] of 3.24 µM.
Regarding `CC(=O)[CH-]C(=O)c1ccccc1.CC(=O)[CH-]C(=O)c1ccccc1.Cl.[O-]CCc1ccccn1.[O-]CCc1ccccn1.[Ti+4]`, the GI50 in assay [1] was 22.4 µM; in [4] it was 22 µM; in assay [2], 30.1 µM; in [3] it was 25.8 µM; in assay [9] it was 19.2 µM; in assay [5], 28.3 µM. In addition, the TGI was 77.1 µM in [1]; 70.5 µM in [4]; > 100 µM in [2]; 75.4 µM in assay [3]; 38.9 µM in [9]; > 100 µM in assay [5].
As for `CCOC(=O)C(=O)CC(=O)C(Br)C(Br)c1ccc(Cl)cc1` (configuration not stated), the TGI in [1] is 34.7 µM; in assay [4], 50.7 µM; in assay [2], > 100 µM; in assay [3], > 100 µM; in assay [9], > 100 µM; in [5] it was 90.1 µM.
